In patent publication US20230087342A1, “AZEPANE DERIVATIVE” (Nippon Chemiphar Co., Ltd., priority 2019, published 2023):

Target: T1, human κ opioid receptors (Homo sapiens, UniProt P41145)
T1 construct: host or cells: CHO cells
Test: Opioid receptor function test (Lance Ultra cAMP kit, agonist activity)
Format: cell-based
Conditions: CHO cells expressing human κ opioid receptors, 10 μM forskolin, 30 minutes
Protocol: Opioid Receptor Function Test
The function activity of the compound of the present invention on κ opioid receptors was examined.
Method: Using a Lance Ultra cAMP kit (Perkin Elmer), the examination was performed according to a predetermined method. In evaluation of agonist activity, CHO cells expressing human κ opioid receptors (Catalog No. CT6606, accession No. NM_000912) and a test compound were reacted in an assay buffer (1×HSS, 5 mM HEPES, pH 7.4, 0.5 mM IBMX (isobutylmethyixanthine), 0.1% SA) in the presence of 10 μM forskolin for 30 minutes. Subsequently, a cAMP detection reagent in the kit was added. One hour later, time-resolved fluorescence measurement was performed using an EnVision plate reader (Perkin Elmer). The evaluation of the test compound was performed in a concentration range of 10^−14 to 10^−7 M for the κ opioid receptor function test.

T1 sequence (P41145 whole entry): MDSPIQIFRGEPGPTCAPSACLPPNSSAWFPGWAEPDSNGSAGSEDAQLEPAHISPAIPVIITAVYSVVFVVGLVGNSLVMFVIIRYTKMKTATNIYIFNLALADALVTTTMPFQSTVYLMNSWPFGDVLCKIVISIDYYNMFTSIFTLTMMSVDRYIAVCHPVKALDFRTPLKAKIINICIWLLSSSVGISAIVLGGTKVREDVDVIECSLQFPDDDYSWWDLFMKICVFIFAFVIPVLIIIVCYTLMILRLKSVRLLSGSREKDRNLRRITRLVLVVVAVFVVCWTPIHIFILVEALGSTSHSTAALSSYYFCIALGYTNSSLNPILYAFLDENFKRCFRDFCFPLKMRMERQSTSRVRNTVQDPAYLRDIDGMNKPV

Row | Molecule | EC50
1 | CCc1cc(CC(=O)N2CC[C@]34CCN(CC5CC5)[C@H](Cc5ccc(O)cc53)[C@]4(O)CC2)no1 [Example 191, 1-((5aS,6R,11bR)-14-(cyclopropylmethyl)-5a,10-dihydroxy-1,2,5,5a,6,7-hexahydro-6,11b-(epiminoethano)naphtho[1,2-d]azepin-3(4H)-yl)-2-(5-ethylisoxazol-3-yl)ethan-1-one] | 480 pM
2 | (5aS,6R,11bS)-14-(cyclopropylmethyl)-3-((1R,3R)-3-(4-methyl-1H-pyrazol-1-yl)cyclopentyl)-2,3,4,5,6,7-hexahydro-6,11b-(epiminoethano)naphtho[1,2-d]azepine-5a,10(1H)-diol and (5aS,6R,11bS)-14-(cyclopropylmethyl)-3-((1S,3S)-3-(4-methyl-1H-pyrazol-1-yl)cyclopentyl)-2,3,4,5,6,7-hexahydro-6,11b-(epiminoethano)naphtho[1,2-d]azepine-5a,10(1H)-diol [Example 237] | 290 pM
3 | Oc1ccc2c(c1)[C@@]13CCN(CCn4ccc(C(F)(F)F)n4)CC[C@@]1(O)[C@@H](C2)N(CC1CC1)CC3 [Example 54, (5aS,6R,11bS)-14-(cyclopropylmethyl)-3-(2-(3-(trifluoromethyl)-1H-pyrazol-1-yl)ethyl)-2,3,4,5,6,7-hexahydro-6,11b-(epiminoethano)naphtho[1,2-d]azepine-5a,10(1H)-diol] | 360 pM
4 | O=C(CCn1cc(C(F)(F)F)cn1)N1CC[C@]23CCN(CC4CC4)[C@H](Cc4ccc(O)cc42)[C@]3(O)CC1 [Example 169, 1-((5aS,6R,11bR)-14-(cyclopropylmethyl)-5a,10-dihydroxy-1,2,5,5a,6,7-hexahydro-6,11b-(epiminoethano)naphtho[1,2-d]azepin-3(4H)-yl)-3-(4-(trifluoromethyl)-1H-pyrazol-1-yl)propan-1-one] | 94 pM
5 | O=C(Cn1cc(Br)cn1)N1CC[C@]23CCN(CC4CC4)[C@H](Cc4ccc(O)cc42)[C@]3(O)CC1 [Example 60, 2-(4-bromo-1H-pyrazol-1-yl)-1-((5aS,6R,11bR)-14-(cyclopropylmethyl)-5a,10-dihydroxy-1,2,5,5a,6,7-hexahydro-6,11b-(epiminoethano)naphtho[1,2-d]azepin-3(4H)-yl)ethan-1-one] | 56 pM
6 | Cc1cc(CCN2CC[C@]34CCN(CC5CC5)[C@H](Cc5ccc(O)cc53)[C@]4(O)CC2)no1 [Example 188, (5aS,6R,11bS)-14-(cyclopropylmethyl)-3-(2-(5-methylisoxazol-3-yl)ethyl)-2,3,4,5,6,7-hexahydro-6,11b-(epiminoethano)naphtho[1,2-d]azepine-5a,10(1H)-diol] | 690 pM
7 | Cc1cc2c(cc1O)[C@@]13CCN(C(=O)Cn4cc(C(F)(F)F)cn4)CC[C@@]1(O)[C@@H](C2)N(CC1CC1)CC3 [Example 329, 1-((5aS,6R,11bR)-14-(cyclopropylmethyl)-5a,10-dihydroxy-9-methyl-1,2,5,5a,6,7-hexahydro-6,11b-(epiminoethano)naphtho[1,2-d]azepin-3(4H)-yl)-2-(4-(trifluoromethyl)-1H-pyrazol-1-yl)ethan-1-one] | 84 pM
8 | Oc1ccc2c(c1)[C@@]13CCN(CCc4ncccn4)CC[C@@]1(O)[C@@H](C2)N(CC1CC1)CC3 [Example 83, (5aS,6R,11bS)-14-(cyclopropylmethyl)-3-(2-(pyrimidin-2-yl)ethyl)-2,3,4,5,6,7-hexahydro-6,11b-(epiminoethano)naphtho[1,2-d]azepine-5a,10(1H)-diol] | 370 pM
9 | O=C(CCc1nccs1)N1CC[C@]23CCN(CC4CC4)[C@H](Cc4ccc(O)cc42)[C@]3(O)CC1 [Example 210, 1-((5aS,6R,11bR)-14-(cyclopropylmethyl)-5a,10-dihydroxy-1,2,5,5a,6,7-hexahydro-6,11b-(epiminoethano)naphtho[1,2-d]azepin-3(4H)-yl)-3-(thiazol-2-yl)propan-1-one] | 720 pM
10 | Oc1ccc2c(c1)[C@@]13CCN(CCc4cc5ccccn5n4)CC[C@@]1(O)[C@@H](C2)N(CC1CC1)CC3 [Example 118, (5aS,6R,11bS)-14-(cyclopropylmethyl)-3-(2-(pyrazolo[1,5-a]pyridin-2-yl)ethyl)-2,3,4,5,6,7-hexahydro-6,11b-(epiminoethano)naphtho[1,2-d]azepine-5a,10(1H)-diol] | 16 pM
11 | Cc1cnn(CCN2CC[C@]34CCN(C[C@@H]5C[C@@H]5F)[C@H](Cc5ccc(O)cc53)[C@]4(O)CC2)c1 [Example 219, (5aS,6R,11bS)-14-(((1S,2S)-2-fluorocyclopropyl)methyl)-3-(2-(4-methyl-1H-pyrazol-1-yl)ethyl)-2,3,4,5,6,7-hexahydro-6,11b-(epiminoethano)naphtho[1,2-d]azepine-5a,10(1H)-diol] | 230 pM
12 | Cn1nc(CC(=O)N2CC[C@]34CCN(CC5CC5)[C@H](Cc5ccc(O)cc53)[C@]4(O)CC2)cc1C(F)(F)F [Example 36, 1-((5aS,6R,11bR)-14-(cyclopropylmethyl)-5a,10-dihydroxy-1,2,5,5a,6,7-hexahydro-6,11b-(epiminoethano)naphtho[1,2-d]azepin-3(4H)-yl)-2-(1-methyl-5-(trifluoromethyl)-1H-pyrazol-3-yl)ethan-1-one] | 25 pM
13 | Cc1cnn(CC(=O)N2CC[C@]34CCN(CC5CC5)[C@H](Cc5ccc(O)cc53)[C@]4(O)CC2)c1 [Example 49, 1-((5aS,6R,11bR)-14-(cyclopropylmethyl)-5a,10-dihydroxy-1,2,5,5a,6,7-hexahydro-6,11b-(epiminoethano)naphtho[1,2-d]azepin-3(4H)-yl)-2-(4-methyl-1H-pyrazol-1-yl)ethan-1-one] | 89 pM
14 | Cc1cnn(CCN2CC[C@]34CCN(CC5CC5)[C@H](Cc5ccc(OC(=O)C(C)(C)C)cc53)[C@]4(O)CC2)c1 [Example 238, (5aS,6R,11bS)-14-(cyclopropylmethyl)-5a-hydroxy-3-(2-(4-methyl-1H-pyrazol-1-yl)ethyl)-1,2,3,4,5,5a,6,7-octahydro-6,11b-(epiminoethano)naphtho[1,2-d]azepin-10-yl pivalate] | 450 pM
15 | Oc1ccc2c(c1)[C@@]13CCN(CCc4cccc(C(F)(F)F)n4)CC[C@@]1(O)[C@@H](C2)N(CC1CC1)CC3 [Example 88, (5aS,6R,11bS)-14-(cyclopropylmethyl)-3-(2-(6-(trifluoromethyl)pyridin-2-yl)ethyl)-2,3,4,5,6,7-hexahydro-6,11b-(epiminoethano)naphtho[1,2-d]azepine-5a,10(1H)-diol] | 750 pM
16 | Cc1cnn(C[C@@H](CO)N2CC[C@]34CCN(CC5CC5)[C@H](Cc5ccc(O)cc53)[C@]4(O)CC2)c1 [Example 234, (5aS,6R,11bS)-14-(cyclopropylmethyl)-3-((S)-1-hydroxy-3-(4-methyl-1H-pyrazol-1-yl)propan-2-yl)-2,3,4,5,6,7-hexahydro-6,11b-(epiminoethano)naphtho[1,2-d]azepine-5a,10(1H)-diol] | 87 pM
17 | Cc1cnn(CCCN2CC[C@]34CCN(CC5CC5)[C@H](Cc5ccc(O)cc53)[C@]4(O)CC2)c1 [Example 230, (5aS,6R,11bS)-14-(cyclopropylmethyl)-3-(3-(4-methyl-1H-pyrazol-1-yl)propyl)-2,3,4,5,6,7-hexahydro-6,11b-(epiminoethano)naphtho[1,2-d]azepine-5a,10(1H)-diol] | 66 pM
18 | Oc1ccc2c(c1)[C@@]13CCN(CCc4cc[nH]n4)CC[C@@]1(O)[C@@H](C2)N(CC1CC1)CC3 [Example 27, (5aS,6R,11bS)-3-(2-(1H-pyrazol-3-yl)ethyl)-14-(cyclopropylmethyl)-2,3,4,5,6,7-hexahydro-6,11b-(epiminoethano)naphtho[1,2-d]azepine-5a,10(1H)-diol] | 130 pM
19 | Oc1ccc2c(c1)[C@@]13CCN(CCc4ccccn4)CC[C@@]1(O)[C@@H](C2)N(CC1CCC1)CC3 [Example 162, (5aS,6R,11bS)-14-(cyclobutylmethyl)-3-(2-(pyridin-2-yl)ethyl)-2,3,4,5,6,7-hexahydro-6,11b-(epiminoethano)naphtho[1,2-d]azepine-5a,10(1H)-diol] | 390 pM
20 | Oc1ccc2c(c1)[C@]13CCN(CC4CC4)[C@H](C2)[C@]1(O)CCCN(CCc1ccccn1)C3 [Example 137, (5aS,6R,11bS)-14-(cyclopropylmethyl)-2-(2-(pyridin-2-yl)ethyl)-2,3,4,5,6,7-hexahydro-6,11b-(epiminoethano)naphtho[1,2-c]azepine-5a,10(1H)-diol] | 140 pM
21 | Cc1cnn(CCN2CC[C@]34CCN(CC5(O)CC5)[C@H](Cc5ccc(O)cc53)[C@]4(O)CC2)c1 [Example 225, (5aS,6R,11bS)-14-((1-hydroxycyclopropyl)methyl)-3-(2-(4-methyl-1H-pyrazol-1-yl)ethyl)-2,3,4,5,6,7-hexahydro-6,11b-(epiminoethano)naphtho[1,2-d]azepine-5a,10(1H)-diol] | 110 pM
22 | Cc1ccn(CCN2CC[C@]34CCN(CC5CC5)[C@H](Cc5ccc(O)cc53)[C@]4(O)CC2)c1 [Example 166, (5aS,6R,11bS)-14-(cyclopropylmethyl)-3-(2-(3-methyl-1H-pyrrol-1-yl)ethyl)-2,3,4,5,6,7-hexahydro-6,11b-(epiminoethano)naphtho[1,2-d]azepine-5a,10(1H)-diol] | 310 pM
23 | Cc1cccnc1CCN1CC[C@]23CCN(CC4CC4)[C@H](Cc4ccc(O)cc42)[C@]3(O)CC1 [Example 102, (5aS,6R,11bS)-14-(cyclopropylmethyl)-3-(2-(3-methylpyridin-2-yl)ethyl)-2,3,4,5,6,7-hexahydro-6,11b-(epiminoethano)naphtho[1,2-d]azepine-5a,10(1H)-diol] | 130 pM
